Test results taken from patent publication US12479830B2, “Homopiperazinyl and homopiperidinyl quinazolin-4(3H)-one derivatives having multimodal activity against pain” (ESTEVE PHARMACEUTICALS, S.A., priority 2019, dated 2025).
pKi: −log10 of the molar value.

Columns and labels:
[1] = biological target: Human α2δ-1 subunit of Cav2.2 calcium channel (Homo sapiens, UniProt P54289); test: Human α2δ-1 subunit of Cav2.2 calcium channel assay ([3H]-gabapentin binding); conditions: binding to the α2δ-1 subunit of voltage-gated calcium channels, expressed as Ki class; + also covers inhibition between 1% and 50%
Human α2δ-1 subunit of Cav2.2 calcium channel, sequence (P54289 25-1103): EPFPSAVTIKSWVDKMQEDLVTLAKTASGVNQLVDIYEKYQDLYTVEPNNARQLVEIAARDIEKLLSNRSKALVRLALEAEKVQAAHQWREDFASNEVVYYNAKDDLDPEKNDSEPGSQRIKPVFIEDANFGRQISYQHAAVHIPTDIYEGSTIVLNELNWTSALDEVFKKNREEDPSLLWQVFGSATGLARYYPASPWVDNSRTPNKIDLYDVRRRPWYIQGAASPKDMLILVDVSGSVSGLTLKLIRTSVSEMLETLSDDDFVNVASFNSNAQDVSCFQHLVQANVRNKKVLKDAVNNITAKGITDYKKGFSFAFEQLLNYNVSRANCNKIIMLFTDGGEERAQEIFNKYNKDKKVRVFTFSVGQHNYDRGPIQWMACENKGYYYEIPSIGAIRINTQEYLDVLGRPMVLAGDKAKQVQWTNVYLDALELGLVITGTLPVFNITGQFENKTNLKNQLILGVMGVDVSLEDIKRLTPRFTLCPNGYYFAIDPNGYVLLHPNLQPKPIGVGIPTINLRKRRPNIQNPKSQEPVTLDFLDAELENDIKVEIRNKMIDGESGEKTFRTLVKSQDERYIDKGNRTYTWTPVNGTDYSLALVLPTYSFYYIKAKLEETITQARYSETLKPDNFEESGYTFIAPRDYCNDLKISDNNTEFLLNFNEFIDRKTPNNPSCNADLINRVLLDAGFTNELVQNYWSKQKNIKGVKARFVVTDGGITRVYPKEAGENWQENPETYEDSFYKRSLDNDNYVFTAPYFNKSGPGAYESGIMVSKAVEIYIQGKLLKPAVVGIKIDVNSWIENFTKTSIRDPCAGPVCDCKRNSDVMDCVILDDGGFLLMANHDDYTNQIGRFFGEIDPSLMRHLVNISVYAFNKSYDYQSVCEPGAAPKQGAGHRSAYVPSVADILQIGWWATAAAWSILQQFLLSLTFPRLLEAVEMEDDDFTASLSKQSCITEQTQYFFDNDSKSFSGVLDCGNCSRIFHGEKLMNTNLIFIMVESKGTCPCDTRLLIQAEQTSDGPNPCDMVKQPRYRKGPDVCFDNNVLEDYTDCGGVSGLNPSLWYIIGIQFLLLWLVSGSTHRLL
Outline: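 Affinity (Ki, five concentrations) or % inhibition at 1 or 10 μM, from displacement of 15 nM [3H]-gabapentin on human α2δ-1 membranes. Incubation 60 min, 27° C., Hepes-KOH 10 mM pH 7.4; 10 μM pregabalin defined non-specific binding; bound radioactivity counted after GF/C filtration.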

[2] = biological target: T1, Human σ1 receptor (Homo sapiens, UniProt Q99720); test: Human σ1 receptor radioligand assay ([3H](+)-pentazocine binding); conditions: binding to the σ1 receptor, expressed as Ki class; + also covers inhibition between 1% and 50%
T1 construct: expressed in transfected cells; host or cells: HEK-293
T1 sequence (Q99720 whole entry): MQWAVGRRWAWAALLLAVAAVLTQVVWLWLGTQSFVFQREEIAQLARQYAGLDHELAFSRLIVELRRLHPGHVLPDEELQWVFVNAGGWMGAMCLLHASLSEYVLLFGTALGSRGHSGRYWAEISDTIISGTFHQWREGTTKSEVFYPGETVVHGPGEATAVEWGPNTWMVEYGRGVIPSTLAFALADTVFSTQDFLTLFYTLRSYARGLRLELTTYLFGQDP
Outline: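 Ki was derived from five test concentrations, or % inhibition was measured at a single 1 or 10 μM dose, against 5 nM [3H](+)-pentazocine. Incubation was 120 min at 37° C in 50 mM Tris-HCl pH 8 with 7 μg HEK-293 membranes, and 10 μM haloperidol set non-specific binding. Bound radioactivity was counted after filtration.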

Compound	pKi [1]	pKi [2]
CCC[C@@H](c1nc2ccc(Br)cc2c(=O)n1CC)N1CCN(C)C[C@H](COC)C1 [Example 107, 6-bromo-3-ethyl-2-((S)-1-((S)-6-(methoxymethyl)-4-methyl-1,4-diazepan-1-yl)butyl)quinazolin-4(31-)-one]	5.30 to 6.30	6.00 to 6.30
CCC[C@@H](c1nc2ccc(Br)cc2c(=O)n1CC)N1CCN(C)C[C@@H](COC)C1 [Example 108, 6-bromo-3-ethyl-2-((S)-1-((R)-6-(methoxymethyl)-4-methyl-1,4-diazepan-1-yl)butyl)quinazolin-4(3/1)-one]	< 5.30	6.00 to 6.30
CCC[C@H](c1nc2cc(Cl)c(Cl)cc2c(=O)n1CC)N1CCNC[C@@H](C)C1 [Example 110, 6,7-dichloro-3-ethyl-2-((R)-1-((R)-6-methyl-1,4-diazepan-1-yl)butyl)quinazolin-4(3H)-one]	> 6.30	< 6.00
CCC[C@@H](c1nc2cc(Cl)c(Cl)cc2c(=O)n1CC)N1CCNC[C@H](C)C1 [Example 111, 6,7-dichloro-3-ethyl-2-((S)-1-((S)-6-methyl-1,4-diazepan-1-yl)butyl)quinazolin-4(3H)-one]	5.30 to 6.30	< 6.00
CCC[C@@H](c1nc2ccc(Br)cc2c(=O)n1CC)N1CCNC[C@@H](O)C1 [Example 113, 6-Bromo-3-ethyl-2-((S)-1-((R)-6-hydroxy-1,4-diazepan-1-yl)butyl)quinazolin-4(3H)-one]	< 5.30	< 6.00
CCC[C@H](c1nc2ccc(Br)cc2c(=O)n1CC)N1CCNC[C@@H](O)C1 [Example 114, 6-bromo-3-ethyl-2-((R)-1-((R)-6-hydroxy-1,4-diazepan-1-yl)butyl)quinazolin-4(3H)-one]	> 6.30	< 6.00
CCC[C@@H](c1nc2ccc(Br)cc2c(=O)n1CC)N1CCNC[C@H](O)C1 [Example 115, 6-bromo-3-ethyl-2-((S)-1-((S)-6-hydroxy-1,4-diazepan-1-yl)butyl)quinazolin-4(3H)-one]	< 5.30	< 6.00
CCC[C@H](c1nc2ccc(Br)cc2c(=O)n1CC)N1CCNC[C@H](O)C1 [Example 116, 6-bromo-3-ethyl-2-((R)-1-((S)-6-hydroxy-1,4-diazepan-1-yl)butyl)quinazolin-4(3H)-one]	> 6.30	< 6.00
CCC[C@H](c1nc2cc(F)c(Cl)cc2c(=O)n1CC)N1CCNC[C@H](C)C1 [Example 118, 6-Chloro-3-ethyl-7-fluoro-2-((R)-1-((S)-6-methyl-1,4-diazepan-1-yl)butyl)quinazolin-4(3H)-one]	> 6.30	6.00 to 6.30
CCC[C@H](c1nc2cc(F)c(Cl)cc2c(=O)n1CC)N1CCNC[C@@H](C)C1 [Example 119, 6-chloro-3-ethyl-7-fluoro-2-((R)-1-((R)-6-methyl-1,4-diazepan-1-yl)butyl)quinazolin-4(3H)-one]	> 6.30	6.00 to 6.30
CCCC(c1nc2ccc(Br)cc2c(=O)[nH]1)N1CCCN(C)CC1 (stereo not shown) [Example 122, 6-bromo-2-(1-(4-methyl-1,4-diazepan-1-yl)butyl)quinazolin-4(3H)-one]	< 5.30	6.00 to 6.30
CCC[C@H](c1nc2ccc(Br)cc2c(=O)n1CC)N1CCN(C)C[C@@H](CO)C1 [Example 125, 6-bromo-3-ethyl-2-((R)-1-((R)-6-(hydroxymethyl)-4-methyl-1,4-diazepan-1-yl)butyl)quinazolin-4(3H)-one]	5.30 to 6.30	6.00 to 6.30
CCC[C@@H](c1nc2ccc(Br)cc2c(=O)n1CC)N1CCN(C)C[C@H](CO)C1 [Example 126, 6-bromo-3-ethyl-2-((S)-1-((S)-6-(hydroxymethyl)-4-methyl-1,4-diazepan-1-yl)butyl)quinazolin-4(3H)-one]	5.30 to 6.30	6.00 to 6.30
CCC[C@H](c1nc2cc(F)c(Br)cc2c(=O)n1CC)N1CCN(C)C[C@H](C)C1 [Example 127, 6-Bromo-2-((R)-1-((S)-4,6-dimethyl-1,4-diazepan-1-yl)butyl)-3-ethyl-7-fluoroquinazolin-4(3H)-one]	> 6.30	6.00 to 6.30
CCC[C@H](c1nc2cc(F)c(Br)cc2c(=O)n1CC)N1CCN(C)C[C@@H](C)C1 [Example 130, 6-bromo-2-((R)-1-((R)-4,6-dimethyl-1,4-diazepan-1-yl)butyl)-3-ethyl-7-fluoroquinazolin-4 (3H)-one]	> 6.30	6.00 to 6.30
CCC[C@H](c1nc2cc(Cl)c(Cl)cc2c(=O)n1CC)N1CCN(C)C[C@H](C)C1 [Example 131, 6,7-Dichloro-2-((R)-1-((S)-4,6-dimethyl-1,4-diazepan-1-yl)butyl)-3-ethylquinazolin-4(3H)-one]	> 6.30	> 6.30
CCC[C@H](c1nc2cc(Cl)c(Cl)cc2c(=O)n1CC)N1CCN(C)C[C@@H](C)C1 [Example 132, 6,7-dichloro-2-((R)-1-((R)-4,6-dimethyl-1,4-diazepan-1-yl)butyl)-3-ethylquinazolin-4(3H)-one]	> 6.30	> 6.30
CCC[C@H](c1nc2cc(F)c(Cl)cc2c(=O)n1CC)N1CCN(C)C[C@H](C)C1 [Example 135, 6-Chloro-2-((R)-1-((S)-4,6-dimethyl-1,4-diazepan-1-yl)butyl)-3-ethyl-7-fluoroquinazolin-4(3H)-one]	> 6.30	> 6.30
CCC[C@H](c1nc2cc(F)c(Cl)cc2c(=O)n1CC)N1CCN(C)C[C@@H](C)C1 [Example 136, 6-chloro-2-((R)-1-((R)-4,6-dimethyl-1,4-diazepan-1-yl)butyl)-3-ethyl-7-fluoroquinazolin-4(3H)-one]	> 6.30	6.00 to 6.30
CCC[C@@H](c1nc2cc(F)c(Cl)cc2c(=O)n1CC)N1CCN(C)C[C@H](C)C1 [Example 137, 6-chloro-2-((S)-1-((S)-4,6-dimethyl-1,4-diazepan-1-yl)butyl)-3-ethyl-7-fluoroquinazolin-4(3H)-one]	< 5.30	6.00 to 6.30
CCC[C@@H](c1nc2cc(F)c(Cl)cc2c(=O)n1CC)N1CCN(C)C[C@@H](C)C1 [Example 138, 6-chloro-2-((S)-1-((R)-4,6-dimethyl-1,4-diazepan-1-yl)butyl)-3-ethyl-7-fluoroquinazolin-4 (3H)-one]	< 5.30	6.00 to 6.30

The remaining lines, values ahead:

pKi [1]	pKi [2]	Compound
> 6.30	< 6.00	CCC[C@H](c1nc2cc(Cl)c(Cl)cc2c(=O)n1CC)N1CCNC[C@H](C)C1 [Example 109, 6,7-Dichloro-3-ethyl-2-((R)-1-((S)-6-methyl-1,4-diazepan-1-yl)butyl)quinazolin-4(3H)-one]
< 5.30	< 6.00	CCC[C@@H](c1nc2cc(Cl)c(Cl)cc2c(=O)n1CC)N1CCNC[C@@H](C)C1 [Example 112, 6,7-dichloro-3-ethyl-2-((S)-1-((R)-6-methyl-1,4-diazepan-1-yl)butyl)quinazolin-4 (3H)-one]
5.30 to 6.30	6.00 to 6.30	CCCC(c1nc2c(F)cc(OC)cc2c(=O)n1CC)N1CCCN(C)CC1 (stereo not shown) [Example 117, 3-ethyl-8-fluoro-6-methoxy-2-(1-(4-methyl-1,4-diazepan-1-yl)butyl)quinazolin-4(3H)-one]
< 5.30	< 6.00	CCC[C@@H](c1nc2cc(F)c(Cl)cc2c(=O)n1CC)N1CCNC[C@H](C)C1 [Example 120, 6-chloro-3-ethyl-7-fluoro-2-((S)-1-((S)-6-methyl-1,4-diazepan-1-yl)butyl)quinazolin-4(3H)-one]
< 5.30	< 6.00	CCC[C@@H](c1nc2cc(F)c(Cl)cc2c(=O)n1CC)N1CCNC[C@@H](C)C1 [Example 121, 6-chloro-3-ethyl-7-fluoro-2-((S)-1-((R)-6-methyl-1,4-diazepan-1-yl)butyl)quinazolin-4 (3H)-one]
> 6.30	6.00 to 6.30	CCC[C@H](c1nc2ccc(Br)cc2c(=O)n1CC)N1CCN(C)C[C@H](CO)C1 [Example 123, 6-Bromo-3-ethyl-2-((R)-1-((S)-6-(hydroxymethyl)-4-methyl-1,4-diazepan-1-yl)butyl)quinazolin-4(3H)-one]
5.30 to 6.30	< 6.00	CCC[C@@H](c1nc2ccc(Br)cc2c(=O)n1CC)N1CCN(C)C[C@@H](CO)C1 [Example 124, 6-bromo-3-ethyl-2-((S)-1-((R)-6-(hydroxymethyl)-4-methyl-1,4-diazepan-1-yl)butyl)quinazolin-4(3H)-one]
< 5.30	< 6.00	CCC[C@@H](c1nc2cc(F)c(Br)cc2c(=O)n1CC)N1CCN(C)C[C@H](C)C1 [Example 128, 6-bromo-2-((S)-1-((S)-4,6-dimethyl-1,4-diazepan-1-yl)butyl)-3-ethyl-7-fluoroquinazolin-4(3H)-one]
5.30 to 6.30	< 6.00	CCC[C@@H](c1nc2cc(F)c(Br)cc2c(=O)n1CC)N1CCN(C)C[C@@H](C)C1 [Example 129, 6-bromo-2-((S)-1-((R)-4,6-dimethyl-1,4-diazepan-1-yl)butyl)-3-ethyl-7-fluoroquinazolin-4(3H)-one]
< 5.30	< 6.00	CCC[C@@H](c1nc2cc(Cl)c(Cl)cc2c(=O)n1CC)N1CCN(C)C[C@H](C)C1 [Example 133, 6,7-dichloro-2-((S)-1-((S)-4,6-dimethyl-1,4-diazepan-1-yl)butyl)-3-ethylquinazolin-4(3H)-one]
< 5.30	6.00 to 6.30	CCC[C@@H](c1nc2cc(Cl)c(Cl)cc2c(=O)n1CC)N1CCN(C)C[C@@H](C)C1 [Example 134, 6,7-dichloro-2-((S)-1-((R)-4,6-dimethyl-1,4-diazepan-1-yl)butyl)-3-ethylquinazolin-4(3H)-one]
